{"source": "patent US9018241B2", "about": "“Hetero-substituted acetanilide derivatives as analgesic agents” (Janssen Pharmaceutica N.V., priority 2003, dated 2015)", "key": {"[1]": {"system": "rectal temperature of rats injected with yeast suspension", "assay": "Antipyretic evaluation in yeast-injected rats", "format": "in vivo", "experimental": "Groups of 10 male rats are weighed, color-coded, rectal temperatures taken (24 hours±15 minutes prior to dose administration) and recorded. Food is removed but water remains available ad libitum. Each rat is injected subcutaneously into the central dorsal region with 5 ml of a 15% yeast suspension. Twenty-three hours (±15 minutes) after yeast injection, body weights and rectal temperatures are taken and recorded. Twenty-four hours (±15 minutes) after yeast injection, the vehicle and test articles are administered orally. Temperatures are taken and recorded one hour (±5 minutes) following test article or vehicle administration. The mean rectal temperatures for the test article and vehicle control groups are calculated at 23 and 25 hours (±15 minutes) and subjected to an ANOVA followed by a Tukey HSD Multiple Comparison Test (p≦0.05)—Systat, version 9.0."}, "[2]": {"system": "acetylcholine-induced abdominal constriction in mice", "assay": "Mouse Abdominal Irritant Test (MAIT)", "format": "in vivo", "details": "300 mg/kg oral, male CD1 mice, % Inhibition=100×(Number of Nonresponders)/(Number of Animals in Group), read-out: Effect @ 300 mg/kg (Antinociceptive Effect in Mouse Abdominal Irritant Test)", "experimental": "Male CD1 mice (weighing from 18-24 g) are used to determine the antinociceptive effects associated with the compositions of the invention. The mice are all dosed orally with the compounds specified, dissolved in distilled water or suspended in 0.5% MethocelTM (hydroxypropyl methylcellulose) in water. The dosing volume is 10 mL/kg.\nThe procedure used in detecting and comparing the analgesic activity of different classes of analgesic drugs for which there is a good correlation with human efficacy is the prevention of acetylcholine-induced abdominal constriction in mice (H. Collier et al., Br. J. Pharmacol., 32, 295 (1968)).\nMice, intubated with various doses of the compound or vehicle such as distilled water, or distilled water 0.5% Methocel™ (hydroxypropyl methylcellulose) in water, are injected intraperitoneally with a challenge dose of acetylcholine bromide. The acetylcholine is completely dissolved in distilled water at a concentration of […] and injected at the rate of 0.20 mL/20 g. For scoring purposes, an “abdominal constriction” is defined as a contraction of the abdominal musculature accompanied by arching of the back and extension of the limbs. The mice are observed for 10 minutes for the presence or absence of the abdominal constriction response beginning immediately after receiving the acetylcholine dose, administered at a certain time after the oral administration of the test drug or vehicle. Each mouse is used only once.\nThe percent of inhibition of this response is calculated as follows: % Inhibition=100×(Number of Nonresponders)/(Number of Animals in Group)"}}}
{"smiles": "O=C(Nc1ccc(O)cc1)c1ccccn1", "note": "[Pyridine-2-carboxylic acid (4-hydroxy-phenyl)-amide]", "values": [{"measurement": "decrease in body temperature relative to the vehicle-treated group", "setting": "[1]; 600 mg/kg oral, ANOVA, Tukey HSD", "result": "statistically significant (p≦1.05) decrease in body temperature"}, {"measurement": "Antipyresis deg C. @ 600 mpk", "setting": "[1]; 600 mpk oral, one hour after administration, 24 h after yeast injection", "result": "−2.17", "unit": "deg C."}, {"measurement": "responders at 300 mg/kg", "setting": "[2]", "result": 60, "unit": "%"}]}
{"smiles": "O=C(CS)Nc1ccc(O)cc1", "note": "[N-(4-Hydroxy-phenyl)-2-mercapto-acetamide]", "values": [{"measurement": "responders at 300 mg/kg", "setting": "[2]", "result": 40, "unit": "%"}]}
{"smiles": "CS(=O)(=O)CC(=O)Nc1ccc(O)cc1", "note": "[N-(4-Hydroxy-phenyl)-2-methanesulfonyl-acetamide]", "values": [{"measurement": "responders at 300 mg/kg", "setting": "[2]", "result": 40, "unit": "%"}]}
{"smiles": "O=C(Nc1ccc(O)cc1)c1ccc[nH]1", "note": "[1H-Pyrrole-2-carboxylic acid (4-hydroxy-phenyl)-amide]", "values": [{"measurement": "responders at 300 mg/kg", "setting": "[2]", "result": 86.7, "unit": "%"}]}
{"smiles": "CSCC(=O)Nc1ccc(O)cc1", "note": "[N-(4-Hydroxy-phenyl)-2-methylsulfanyl-acetamide]", "values": [{"measurement": "responders at 300 mg/kg", "setting": "[2]", "result": 45, "unit": "%"}]}
{"smiles": "Cc1cc(C(=O)Nc2ccc(O)cc2)n[nH]1", "note": "[5-Methyl-1H-pyrazole-3-carboxylic acid (4-hydroxy-phenyl)-amide]", "values": [{"measurement": "responders at 300 mg/kg", "setting": "[2]", "result": 73.3, "unit": "%"}]}
{"smiles": "O=C(Nc1ccc(O)cc1)[C@H]1CCCN1", "note": "[(R)-Pyrrolidine-2-carboxylic acid (4-hydroxy-phenyl)-amide]", "values": [{"measurement": "responders at 300 mg/kg", "setting": "[2]", "result": 20, "unit": "%"}]}
{"smiles": "O=C(Nc1ccc(O)cc1)[C@@H]1CCCN1", "note": "[(S)-Pyrrolidine-2-carboxylic acid (4-hydroxy-phenyl)-amide]", "values": [{"measurement": "responders at 300 mg/kg", "setting": "[2]", "result": 40, "unit": "%"}]}
{"smiles": "O=C(Nc1ccc(O)cc1)c1n[nH]c2ccccc12", "note": "[1H-Indazole-3-carboxylic acid (4-hydroxy-phenyl)-amide]", "values": [{"measurement": "responders at 300 mg/kg", "setting": "[2]", "result": 20, "unit": "%"}]}
